# Entries after “also recorded” stand apart in the source; their conditions may differ.
# Columns and labels:
# [1] = system: MDA-MB-435 or MDA-MB231 or SKOV-3 cells; experiment: Tumor cell viability (MTS) assay; format: cell-based
# Experimental: The cytotoxicity of test compounds is determined using the CellTiter96 Aqueous One Solution Assay (Promega, Madison, Wis.). Briefly, MDA-MB-435 or MDA-MB231 or SKOV-3 cells were seeded in a 96-well plate at a density of 2000 cells/well on the day prior to treatment with sigma-2 receptor selective ligands. […] The plate is read at 490 nm in a Victor3 plate reader (PerkinElmer Life and Analytical Sciences, Shelton, Conn.). The EC^50 value, defined as the concentration of the sigma ligand required to inhibit cell viability by 50% relative to untreated cells, is determined from the dose response curve for each cell line. Siramesine is accepted as an agonist.
# [2] = system: neurons; settings: 24 hours treatment; cited from earlier work
# [3] = system: caspase-3; settings: cited from earlier work; for caspase-3 activation: tumor cells and neurons
# [4] = target: Sigma-2 receptor; experiment: Sigma-2 receptor competitive radioligand binding assay; parameters: species or system rat; settings: read-out: Sigma-2 Receptor Affinity, Ki
# Experimental: Radioligand binding assays for Sigma-1 receptors and Sigma-2 receptors were carried out by a commercial contract research organization. For Sigma-1 binding, various concentrations of test compounds from 100 μM to 1 nM were used to displace 8 nM [^3H](+)pentazocine from endogenous receptors on Jurkat cell membranes (Ganapathy M E et al. 1991, J Pharmacol. Exp. Ther. 289:251-260). 10 μM Haloperidol was used to define non-specific binding. For Sigma-2 receptors various concentrations of test compounds from 100 μM to 1 nM were used to displace 5 nM [^3H] […] (Bowen W D, et al. 1993, Mol. Neuropharmcol 3:117-126). 10 μM Haloperidol was used to define non-specific binding. Reactions were terminated by rapid filtration through Whatman GF/C filters using a Brandel 12R cell harvester followed by two washes with ice-cold buffer. Radioactivity on the dried filter discs was measured using a liquid scintillation analyzer (Tri-Carb 2900TR; PerkinElmer Life and Analytical Sciences). The displacement curves were plotted and the Ki values of the test ligands for the receptor subtypes were determined using GraphPad Prism (GraphPad Software Inc., San Diego, Calif.). The percentage specific binding was determined by dividing the difference between total bound (disintegrations per minute) and nonspecific bound (disintegrations per minute) by the total bound (disintegrations per minute).
# The affinity of candidate sigma-2 ligand compounds at sigma-1 and sigma-2 receptors was also determined by displacement of different known labeled sigma-2 or sigma-1 ligands. Filtration assays were conducted according the previously published procedure (Xu, et al., 2005). Test compounds were dissolved in N,N-Dimethylformamide (DMF), dimethyl sulfoxide (DMSO) or ethanol and then diluted in 50 mM Tris-HCl pH 7.4 buffer containing 150 mM NaCl and 100 mM EDTA. Membrane homogenates were made from guinea pig brain for sigma-1 binding assay and rat liver for sigma-2 binding assay. Membrane homogenates were diluted with 50 mM Tris-HCl buffer, pH 8.0 and incubated at 25° C. in a total volume of 150 uL in 96 well plates with the radioligand and test compounds with concentrations ranging from 0.1 nM to 10 uM. After incubation was completed, the reactions were terminated by the addition of 150 uL of ice-cold wash buffer (10 mM Tris HCl, 150 mM NaCl, pH 7.4) using a 96 channel transfer pipette (Fisher Scientific, Pittsburgh, Pa.) and the samples harvested and filtered rapidly through 96 well fiber glass filter plate (Millipore, Billerica, Mass.) that had been presoaked with 100 uL of 50 mM Tris-HCl buffer. Each filter was washed four times with 200 uL of ice-cold wash buffer (10 mM Tris-HCl, 150 mM NaCl, pH 7.4). A Wallac 1450 MicroBeta liquid scintillation counter (Perkin Elmer, Boston, Mass.) was used to quantitate the bound radioactivity.
# Nonspecific binding was determined from samples that contained 10 uM of cold haloperidol.
# The binding affinity, Ki values was calculated using the method of Cheng and Prusoff.
# [5] = Mouse liver microsome (MLM) stability; format: in vitro ADME; settings: mouse, microsomes
# Experimental: A first pharmacokinetic study was performed in microsomes of mice mouse liver microsomes, MLM) by a commercial contract research organization. The studies were performed according to Obach, R. S et al. (1997) J. Pharmacol. Exp. Ther., 283: 46-58, which is incorporated herein by reference.
# [6] = target: Sigma-1 receptor; experiment: Sigma-1 receptor competitive radioligand binding assay; settings: read-out: Sigma-1 Receptor Affinity, Ki
# Experimental: Radioligand binding assays for Sigma-1 receptors and Sigma-2 receptors were carried out by a commercial contract research organization. For Sigma-1 binding, various concentrations of test compounds from 100 μM to 1 nM were used to displace 8 nM [^3H](+)pentazocine from endogenous receptors on Jurkat cell membranes (Ganapathy M E et al. 1991, J Pharmacol. Exp. Ther. 289:251-260). 10 μM Haloperidol was used to define non-specific binding. […] 10 μM Haloperidol was used to define non-specific binding. Reactions were terminated by rapid filtration through Whatman GF/C filters using a Brandel 12R cell harvester followed by two washes with ice-cold buffer. Radioactivity on the dried filter discs was measured using a liquid scintillation analyzer (Tri-Carb 2900TR; PerkinElmer Life and Analytical Sciences). The displacement curves were plotted and the Ki values of the test ligands for the receptor subtypes were determined using GraphPad Prism (GraphPad Software Inc., San Diego, Calif.). The percentage specific binding was determined by dividing the difference between total bound (disintegrations per minute) and nonspecific bound (disintegrations per minute) by the total bound (disintegrations per minute).
# [7] = system: Abeta oligomer-induced membrane trafficking deficits in primary hippocampal neurons; experiment: Membrane trafficking/exocytosis (MTT) assay; settings: read-out: Membrane Trafficking EC50; compound dosed prior to Abeta oligomer addition
# Experimental: Primary hippocampal neurons from E18 Sprague-Dawley rat embryos were plated at optimized concentrations in 384 well plates in NB media (Invitrogen). Neurons were maintained in cultures for 3 weeks, with twice weekly feeding of NB media with N2 supplement (Invitrogen).
# MTT reagent (3-(4,5-dimethylthizaol-2yl)-2,5diphenyl tetrazolium bromide) (Roche Molecular Biochemicals) was reconstituted in phosphate buffered saline to 5 mg/mL. 10 μL of MTT labeling reagent is added to each well and incubated at 37° C. for 1 h, then imaged. Exocytosis was assessed by automated microscopy and image processing to quantify the amount of endocytosed and exocytosed formazan.
# Each assay plate was formatted so that compounds are tested with and without Abeta oligomer on each plate. […] Reduced formazan was first visible in intracellular vesicles. […] The dye precipitated in the aqueous environment of the culture and formed needle-shaped crystals on the surface of the neuron.
# [8] = system: neuronal cultures; experiment: Functional neuronal phenotype in neuronal cultures; format: cell-based; parameters: key: Antagonist: antagonists (block Abeta signaling); Agonist: agonists (block Abeta signaling with U-shaped dose-response curve and toxicity at high doses); Inactive: inactive (no effect in neuronal cultures)
# Experimental: Neuronal cultures are treated with various concentrations of sigma compounds for 24 hours and nuclear intensity compared to vehicle is measured.
# [9] = target: potassium channel hERG (Homo sapiens (Human), UniProt Q12809); experiment: In vitro toxicity, hERG inhibition; format: biochemical
# Sequence of potassium channel hERG (Q12809 whole entry): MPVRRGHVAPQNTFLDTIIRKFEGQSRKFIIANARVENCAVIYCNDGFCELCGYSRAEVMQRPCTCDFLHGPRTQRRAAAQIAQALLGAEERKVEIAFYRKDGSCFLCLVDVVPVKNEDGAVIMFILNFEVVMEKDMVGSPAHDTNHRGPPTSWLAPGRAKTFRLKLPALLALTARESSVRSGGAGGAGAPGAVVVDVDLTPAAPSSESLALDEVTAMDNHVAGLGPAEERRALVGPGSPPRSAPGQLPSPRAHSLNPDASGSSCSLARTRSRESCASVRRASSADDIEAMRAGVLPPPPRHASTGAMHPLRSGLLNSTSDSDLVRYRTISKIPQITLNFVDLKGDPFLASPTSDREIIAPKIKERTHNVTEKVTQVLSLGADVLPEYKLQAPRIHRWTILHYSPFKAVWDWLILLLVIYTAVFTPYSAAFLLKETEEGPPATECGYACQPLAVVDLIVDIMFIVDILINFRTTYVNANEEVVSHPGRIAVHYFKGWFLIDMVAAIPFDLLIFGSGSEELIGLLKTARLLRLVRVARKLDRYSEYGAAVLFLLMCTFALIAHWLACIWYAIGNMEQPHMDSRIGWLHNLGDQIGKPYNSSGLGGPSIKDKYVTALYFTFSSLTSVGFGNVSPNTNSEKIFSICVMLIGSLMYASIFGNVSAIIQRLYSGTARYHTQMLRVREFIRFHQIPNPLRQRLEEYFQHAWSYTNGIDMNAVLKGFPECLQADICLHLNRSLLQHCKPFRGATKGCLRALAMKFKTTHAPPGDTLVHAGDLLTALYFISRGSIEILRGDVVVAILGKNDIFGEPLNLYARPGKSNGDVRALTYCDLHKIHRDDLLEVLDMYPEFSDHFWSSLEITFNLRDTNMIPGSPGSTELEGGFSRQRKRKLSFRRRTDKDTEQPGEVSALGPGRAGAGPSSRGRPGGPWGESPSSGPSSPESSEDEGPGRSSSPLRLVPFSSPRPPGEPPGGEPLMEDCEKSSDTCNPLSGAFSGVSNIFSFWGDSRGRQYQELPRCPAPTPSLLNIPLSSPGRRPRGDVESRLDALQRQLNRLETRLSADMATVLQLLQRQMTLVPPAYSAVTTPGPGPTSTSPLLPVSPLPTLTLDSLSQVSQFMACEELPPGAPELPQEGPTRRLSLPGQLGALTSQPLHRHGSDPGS
# Experimental: In vitro toxicity for Test Compounds is tested in a number of standard assays.
# [10] = system: Abeta oligomer-induced synapse loss in primary hippocampal neurons; experiment: Abeta 1-42 oligomer binding and synapse loss assay; format: cell-based, rat
# Experimental: Primary hippocampal neuronal culture is established as in the membrane trafficking assay above. […] Pretreatment with test compounds for 1 hr and addition of Abeta oligomers or no oligomer (vehicle alone) is followed by incubation for an additional 23 hrs.
# The plates are then washed 3× with PBS for 5 min each. The plates are blocked at RT for 1 hr in 5% goat serum and 0.5% Triton X-100 in PBS. Primary antibodies (anti-MAP 2 polyclonal, Millipore #AB5622 and anti-Beta Amyloid 6E10 monoclonal, Covance #SIG-39300, at 1 microgram/ml, and rabbit polyclonal anti-synaptophysin, Anaspec, at 0.2 microgram/ml) were diluted 1:1000 in 5% goat serum with PBS. Primary antibodies are incubated overnight at 4° C. The plates are then washed 3× with PBS for 5 min each. Secondary antibodies (Alex Flor 488 polyclonal, Invitrogen #A11008 and Alexa Flor 647 monoclonal, Invitrogen #A21235) are diluted 1:1000 in 5% goat serum with PBS. Secondary antibodies are incubated at RT for 1 hr. The plates are washed once with PBS. DAPI (4′,6-diamidino-2-phenylindole, Invitrogen) is then applied at 0.03 ug/ul and incubated at RT for 5 min, then washed with PBS.
compound,measurement,setting,value
"COc1cc2c(cc1OC)CN(CCCCNC(=O)c1cc(C)ccc1OC)CC2 [RHM-1, N-[4-(3,4-dihydro-6,7-dimethoxyisoquinolin-2(1H)-yl)butyl]-2-methoxy-5-methylbenzamide]",Action,[1],Antagonist
same,nuclear morphology / nuclear intensity in neurons,[2],do not decrease nuclear intensity
same,caspase-3 activation,[3],do not induce caspase-3 activity
same,inhibition of caspase-3 activation,[3]; tumor cells,inhibits the activation in tumor cells
Fc1ccc(-n2cc(CCCCN3CCC4(CC3)OCc3ccccc34)c3ccccc32)cc1 [Siramesine],Action,[1],Full agonist
same,nuclear morphology / nuclear intensity in neurons,[2],cause significant abnormal nuclear morphology in neurons
same,caspase-3 activation,[3],activate caspase-3 in tumor cells and neurons; also recorded: induces caspase-3 activity
C[C@H](CCc1ccc(Cl)c(Cl)c1)N1Cc2ccc3ccccc3c2C1 [compound 19],Ki,[4],1.8 nM
same,"Mouse liver microsomes, MLM t½",[5],25 min
same,Ki,[6],69 nM
same,EC50,[7],270 nM
same,neuronal phenotype,[8],Weak
same,IC50,[9],98000 nM
C[C@H](CCc1ccc(F)cc1)N1Cc2cccc(F)c2C1 [compound 21],Ki,[4],12 nM
same,"Mouse liver microsomes, MLM t½",[5],7 min
same,Ki,[6],330 nM
same,EC50,[7],> 20000 nM
same,neuronal phenotype,[8],Inactive
same,IC50,[9],15000 nM
C[C@H](CCc1ccc(F)cc1)N1Cc2ccc(F)cc2C1 [compound 22],Ki,[4],23 nM
same,"Mouse liver microsomes, MLM t½",[5],7 min
same,Ki,[6],44 nM
same,EC50,[7],< 250 nM
same,neuronal phenotype,[8],Antagonist
same,IC50,[9],350 nM
COc1cc(CCC(C)(C)N2Cc3cccc(C(=O)N4CCN(C(C)=O)CC4)c3C2)ccc1O [compound 83],Ki,[4],10000 nM
same,"Mouse liver microsomes, MLM t½",[5],336 min
same,Ki,[6],10000 nM
same,EC50,[7],100000 nM
same,neuronal phenotype,[8],Inactive
same,IC50,[9],10000 nM
COc1cc(CC[C@@H](C)N2Cc3ccc(F)cc3C2)ccc1OCCO [compound 30],Ki,[4],910 nM
same,"Mouse liver microsomes, MLM t½",[5],126 min
same,Ki,[6],220 nM
same,EC50,[7],300 nM
same,neuronal phenotype,[8],Antagonist
same,IC50,[9],4700 nM
CC(C)Oc1ccc(CCC(C)(C)N2Cc3ccc(F)cc3C2)cc1OC(C)C [compound 42],Ki,[4],6.2 nM
same,"Mouse liver microsomes, MLM t½",[5],14 min
same,Ki,[6],100 nM
same,EC50,[7],> 20000 nM
same,neuronal phenotype,[8],Agonist
same,IC50,[9],800 nM
COc1cc(CCC(C)(C)N2Cc3cccc(F)c3C2)ccc1O [compound 53],Ki,[4],17 nM
same,"Mouse liver microsomes, MLM t½",[5],21 min
same,Ki,[6],110 nM
same,EC50,[7],> 20000 nM
same,neuronal phenotype,[8],Inactive
same,IC50,[9],2800 nM
CC(C)Oc1cc(CC[C@@H](C)N2Cc3cc4c(cc3C2)OCO4)ccc1O [compound 25],Ki,[4],110 nM
same,"Mouse liver microsomes, MLM t½",[5],4 min
same,Ki,[6],5.7 nM
same,EC50,[7],> 20000 nM
same,neuronal phenotype,[8],Inactive/
same,IC50,[9],3200 nM
CC(C)COc1cc(CCC(C)(C)N2Cc3cccc(F)c3C2)ccc1O [compound 88],Ki,[4],1.3 nM
same,"Mouse liver microsomes, MLM t½",[5],28 min
same,Ki,[6],96 nM
same,EC50,[7],360 nM
same,neuronal phenotype,[8],Neuroactive
same,IC50,[9],2800 nM
COc1cc(CCC(C)(C)N2Cc3cccc(C(=O)NCCN(C)C)c3C2)ccc1O [compound 78],Ki,[4],10000 nM
same,"Mouse liver microsomes, MLM t½",[5],450 min
same,Ki,[6],10000 nM
same,EC50,[7],8800 nM
same,neuronal phenotype,[8],Neuroactive
same,IC50,[9],110000 nM
CC(C)(CCc1ccc(O)c(OC(F)(F)F)c1)N1Cc2cccc(C(=O)O)c2C1 [compound 56],Ki,[4],10000 nM
same,"Mouse liver microsomes, MLM t½",[5],617 min
same,Ki,[6],10000 nM
same,EC50,[7],300 nM
same,neuronal phenotype,[8],Weak and Antagonist
same,IC50,[9],49000 nM
CC(C)(CCc1ccc(O)c(OC(F)(F)F)c1)N1Cc2ccc(S(C)(=O)=O)cc2C1 [compound 61],Ki,[4],6.9 nM
same,"Mouse liver microsomes, MLM t½",[5],114 min
same,Ki,[6],33 nM
same,EC50,[7],< 20 nM
same,neuronal phenotype,[8],Antagonist
same,IC50,[9],790 nM
CCC(Oc1ccc(Cl)cc1)C(=O)OC1CC2CCC(C1)N2C (centres unmarked) [SM-21],elimination of Abeta oligomer-induced synapse loss,[10],only weakly active in eliminating synapse loss
same,synapse loss recovery,[10],20%
CC(C)Oc1cc(CC[C@@H](C)N2Cc3cccc(F)c3C2)ccc1O [compound 26],Ki,[4],41 nM
same,"Mouse liver microsomes, MLM t½",[5],4 min
same,Ki,[6],7.9 nM
same,EC50,[7],> 20000 nM
same,neuronal phenotype,[8],Inactive
same,IC50,[9],3700 nM
C[C@H](CCc1ccc(Cl)c(Cl)c1)N1Cc2cccc(F)c2C1 [compound 9],Ki,[4],3.6 nM
same,"Mouse liver microsomes, MLM t½",[5],12 min
same,Ki,[6],17 nM
same,EC50,[7],220 nM
same,neuronal phenotype,[8],Antagonist
same,IC50,[9],6700 nM
C[C@H](CCc1ccc(F)cc1)N1Cc2cc3c(cc2C1)OCO3 [compound 23],Ki,[4],13 nM
same,"Mouse liver microsomes, MLM t½",[5],5 min
same,Ki,[6],16 nM
same,EC50,[7],< 250 nM
same,neuronal phenotype,[8],Antagonist
same,IC50,[9],370 nM
COc1cc(CCC(C)(C)N2Cc3cccc(C(=O)NCCO)c3C2)ccc1O [compound 79],Ki,[4],460 nM
same,"Mouse liver microsomes, MLM t½",[5],144 min
same,Ki,[6],10000 nM
same,EC50,[7],100000 nM
same,neuronal phenotype,[8],Inactive
same,IC50,[9],11000 nM
CC(C)(C)Oc1cc(CCC(C)(C)N2Cc3c(F)ccc(F)c3C2)ccc1O [compound 74],Ki,[4],550 nM
same,"Mouse liver microsomes, MLM t½",[5],21 min
same,Ki,[6],2300 nM
same,EC50,[7],300 nM
same,neuronal phenotype,[8],Antagonist
same,IC50,[9],100000 nM
C[C@H](CCc1ccc(O)c(OC(F)(F)F)c1)N1Cc2ccc(F)cc2C1 [compound 31],Ki,[4],58 nM
same,"Mouse liver microsomes, MLM t½",[5],6 min
same,Ki,[6],3.7 nM
same,EC50,[7],< 250 nM
same,neuronal phenotype,[8],Antagonist
same,IC50,[9],1900 nM
CC(C)Oc1cc(CCC(C)(C)N2Cc3cc4c(cc3C2)OCO4)ccc1O [compound 29],Ki,[4],13 nM
same,"Mouse liver microsomes, MLM t½",[5],6 min
same,Ki,[6],47 nM
same,EC50,[7],> 20000 nM
same,neuronal phenotype,[8],Inactive/
same,IC50,[9],540 nM
O=C(CCCN1CCC(O)(c2ccc(Cl)cc2)CC1)c1ccc(F)cc1 [haloperidol],elimination of Abeta oligomer-induced synapse loss,[10],completely eliminated synapse loss
COc1cc(CC[C@@H](C)N2Cc3cc4c(cc3C2)OCO4)ccc1OCCO [compound 52],Ki,[4],540 nM
same,"Mouse liver microsomes, MLM t½",[5],97 min
same,Ki,[6],130 nM
same,EC50,[7],300 nM
same,neuronal phenotype,[8],Antagonist
same,IC50,[9],3200 nM
CCCN(CCC)CCc1ccc(OC)c(OCCc2ccccc2)c1 [NE-100],elimination of Abeta oligomer-induced synapse loss,[10],completely eliminated synapse loss
C[C@H](CCc1ccc(O)c(OC(C)(C)C)c1)N1Cc2c(F)ccc(F)c2C1 [60A],Ki,[4],1600 nM
same,"Mouse liver microsomes, MLM t½",[5],5 min
same,Ki,[6],410 nM
same,EC50,[7],> 20000 nM
same,neuronal phenotype,[8],Antagonist
same,IC50,[9],100000 nM
C[C@H](CCc1ccc(O)c(OC(F)(F)F)c1)N1Cc2cc3c(cc2C1)OCO3 [compound 24],Ki,[4],52 nM
same,"Mouse liver microsomes, MLM t½",[5],5 min
same,Ki,[6],4.9 nM
same,EC50,[7],500 nM
same,neuronal phenotype,[8],Antagonist
same,IC50,[9],860 nM
CC(C)(CCc1ccc(F)cc1)N1Cc2cc3c(cc2C1)OCO3 [compound 36],Ki,[4],5.2 nM
same,"Mouse liver microsomes, MLM t½",[5],47 min
same,Ki,[6],4.1 nM
same,EC50,[7],860 nM
same,neuronal phenotype,[8],Antagonist
same,IC50,[9],19 nM
COc1cc2c(cc1OC)CN([C@H](C)CCc1ccc(Cl)c(Cl)c1)C2 [compound 11],Ki,[4],0.44 nM
same,"Mouse liver microsomes, MLM t½",[5],61 min
same,Ki,[6],14 nM
same,EC50,[7],700 nM
same,neuronal phenotype,[8],Antagonist
same,IC50,[9],290 nM
CN(C)C(=O)c1cccc2c1CN(C(C)(C)CCc1ccc(O)c(OC(F)(F)F)c1)C2 [compound 57],Ki,[4],95 nM
same,"Mouse liver microsomes, MLM t½",[5],26 min
same,Ki,[6],700 nM
same,EC50,[7],> 20000 nM
same,neuronal phenotype,[8],Inactive
same,IC50,[9],5000 nM
CC(C)(C)Oc1cc(CCC(C)(C)N2Cc3ccc(S(C)(=O)=O)cc3C2)ccc1O [compound 62],Ki,[4],8.5 nM
same,"Mouse liver microsomes, MLM t½",[5],45 min
same,Ki,[6],63 nM
same,EC50,[7],60 nM
same,neuronal phenotype,[8],Antagonist
same,IC50,[9],26000 nM
CC(C)(CCc1ccc(F)cc1)N1Cc2ccc(F)cc2C1 [compound 35],Ki,[4],3.6 nM
same,"Mouse liver microsomes, MLM t½",[5],9 min
same,Ki,[6],2.1 nM
same,EC50,[7],2200 nM
same,neuronal phenotype,[8],Antagonist
same,IC50,[9],130 nM
COc1cc(CCC(C)(C)N2Cc3ccc(F)cc3C2)ccc1OCCO [compound 45],Ki,[4],190 nM
same,"Mouse liver microsomes, MLM t½",[5],96 min
same,Ki,[6],2800 nM
same,EC50,[7],> 20000 nM
same,neuronal phenotype,[8],Inactive
same,IC50,[9],220 nM

# From patent publication US9796672B2, “Isoindoline compositions and methods for treating neurodegenerative disease” (Cognition Therapeutics, Inc., priority 2014, dated 2017)
